Measurements: patent US20240150362A1, “Substituted Pyrrolotriazines” (Molecure S.A., priority 2022, published 2024)
Counter-ions that a name gives are not always drawn.

These molecules were tested against T1, full-length USP7 (Homo sapiens, UniProt Q93009) (assay: Enzymatic assay to determine % inhibition of USP7 activity at 1 μM test compound (Ubiquitin-Rhodamine 110 cleavage)). Conditions: 1 μM of the test compound; given where IC50 has not been determined yet; mean of two repetitions.
T1 construct: A 45 μl reaction volume containing full-length USP7 (0.5-1.0 nM)
Assay type: biochemical
Method: Enzymatic Assay to Determine % Value of Inhibition […] Activity at 1 μM […]
A 45 μl reaction volume containing full-length USP7 (0.5-1.0 nM) in 50 mM HEPES pH 7.5, 150 mM NaCl, 2 mM DTT, 1 mg/ml BSA and 0.05% Tween20 (DUB assay buffer) was assembled in wells of 96 well half area black flat bottom plates. All test compounds were first dissolved to 30 mM stocks in DMSO and subsequently introduced to enzyme 15 min after USP7 incubation with DTT at room temperature. The final concentration of tested compounds was 1 μM. The enzymatic reaction was started by adding 0.5 μM Ubiquitin-Rhodamine 110 (final concentration) and allowed to proceed for 30-60 min at 25° C., 250 RPM shaking before Rhodamine fluorescence (485 nm excitation/535 nm emission) was measured using Tecan Spark M10 plate reader. Percentage of inhibition at 1 μM was determined by the mean of two repetitions for these concentrations using Microsoft Excel software.

T1 sequence (Q93009 whole entry): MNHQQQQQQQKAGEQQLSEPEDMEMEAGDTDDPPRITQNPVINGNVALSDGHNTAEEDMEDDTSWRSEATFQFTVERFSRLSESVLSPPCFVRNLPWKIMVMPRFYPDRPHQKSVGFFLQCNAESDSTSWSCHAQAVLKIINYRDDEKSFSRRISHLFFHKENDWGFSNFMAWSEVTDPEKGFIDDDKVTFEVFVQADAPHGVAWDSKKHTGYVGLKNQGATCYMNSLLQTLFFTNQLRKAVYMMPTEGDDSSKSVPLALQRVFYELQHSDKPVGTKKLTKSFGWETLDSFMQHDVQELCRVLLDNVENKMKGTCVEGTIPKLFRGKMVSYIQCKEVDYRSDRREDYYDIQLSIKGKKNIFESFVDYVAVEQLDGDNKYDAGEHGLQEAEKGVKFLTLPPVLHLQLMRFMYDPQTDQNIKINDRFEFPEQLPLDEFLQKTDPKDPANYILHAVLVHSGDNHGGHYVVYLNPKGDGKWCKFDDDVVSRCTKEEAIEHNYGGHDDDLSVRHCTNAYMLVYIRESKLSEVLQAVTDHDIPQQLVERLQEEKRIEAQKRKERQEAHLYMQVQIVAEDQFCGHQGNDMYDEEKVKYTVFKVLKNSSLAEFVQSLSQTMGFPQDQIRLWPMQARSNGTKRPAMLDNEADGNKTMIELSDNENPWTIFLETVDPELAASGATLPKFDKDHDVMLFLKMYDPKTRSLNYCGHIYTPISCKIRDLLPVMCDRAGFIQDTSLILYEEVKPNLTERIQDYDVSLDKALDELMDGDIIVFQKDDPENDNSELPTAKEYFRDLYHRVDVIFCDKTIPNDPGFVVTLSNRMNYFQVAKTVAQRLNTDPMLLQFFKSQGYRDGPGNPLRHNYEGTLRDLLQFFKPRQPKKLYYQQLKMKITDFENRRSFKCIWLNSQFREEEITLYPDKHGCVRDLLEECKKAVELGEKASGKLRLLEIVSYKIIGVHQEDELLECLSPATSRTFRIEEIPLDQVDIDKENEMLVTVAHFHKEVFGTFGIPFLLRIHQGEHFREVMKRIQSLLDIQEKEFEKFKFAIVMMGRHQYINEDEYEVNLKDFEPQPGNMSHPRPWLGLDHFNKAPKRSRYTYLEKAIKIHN

Row | inhibition at 1 µM | Compound
1 | 50 to 70% | Cc1c(CN2C(=O)C3C(C2=O)C3(C)C)cn2ncnc(-c3cc(Cl)cc4ccn(CC5(F)CCNCC5)c34)c12 (stereo not shown) [Example 21, 3-((4-(5-chloro-1-((4-fluoropiperidin-4-yl)methyl)-1H-indol-7-yl)-5-methylpyrrolo[2,1-f][1,2,4]triazin-6-yl)methyl)-6,6-dimethyl-3-azabicyclo[3.1.0]hexane-2,4-dione hydrochloride]
2 | 50 to 70% | Cc1cc(Cl)cc(-c2ncnn3cc(CN4C(=O)C5C(C4=O)C5(C)C)cc23)c1C(=O)N1C[C@@H](N)[C@@H](C)C1 (stereo partly drawn) [Example 23, 3-((4-(2-((3S,4S)-3-amino-4-methylpyrrolidine-1-carbonyl)-5-chloro-3-methylphenyl)pyrrolo[2,1-f][1,2,4]triazin-6-yl)methyl)-6,6-dimethyl-3-azabicyclo[3.1.0]hexane-2,4-dione 2,2,2-trifluoroacetate]
3 | 20 to 49% | CC1(C)C2C(=O)N(Cc3cc4c(-c5cc(Cl)cc6ccn(CC7CNCC(F)(F)C7)c56)ncnn4c3)C(=O)C21 (stereo not shown) [Example 26, 3-((4-(5-chloro-1-((5,5-difluoropiperidin-3-yl)methyl)-1H-indol-7-yl)pyrrolo[2,1-f][1,2,4]triazin-6-yl)methyl)-6,6-dimethyl-3-azabicyclo[3.1.0]hexane-2,4-dione dihydrochloride]
4 | < 20% | Cc1cc(Cl)cc(-c2ncnn3cc(CN4C(=O)C5C(C4=O)C5(C)C)cc23)c1O[C@@H]1CNCC(F)(F)C1 (stereo partly drawn) [Example 28, 3-((4-(5-chloro-2-(((S)-5,5-difluoropiperidin-3-yl)oxy)-3-methylphenyl)pyrrolo[2,1-f][1,2,4]triazin-6-yl)methyl)-6,6-dimethyl-3-azabicyclo[3.1.0]hexane-2,4-dione 2,2,2-trifluoroacetate]
5 | > 70% | CC1(C)C2C(=O)N(Cc3cc4c(-c5cc(F)cc6ccn(C[C@@H]7CNCCO7)c56)ncnn4c3)C(=O)C21 (stereo partly drawn) [Example 33, 3-((4-(5-fluoro-1-(((S)-morpholin-2-yl)methyl)-1H-indol-7-yl)pyrrolo[2,1-f][1,2,4]triazin-6-yl)methyl)-6,6-dimethyl-3-azabicyclo[3.1.0]hexane-2,4-dione 2,2,2-trifluoroacetate]
6 | < 20% | COC(=O)c1cc(-c2ncnn3cc(CN4C(=O)C5C(C4=O)C5(C)C)cc23)c2c(ccn2C[C@@H]2CNCCO2)c1 (stereo partly drawn) [Example 34, methyl 7-(6-((6,6-dimethyl-2,4-dioxo-3-azabicyclo[3.1.0]hexan-3-yl)methyl)pyrrolo[2,1-f][1,2,4]triazin-4-yl)-1-(((S)-morpholin-2-yl)methyl)-1H-indole-5-carboxylate 2,2,2-trifluoroacetate]
7 | 50 to 70% | CC1(C)NC(=O)N(Cc2cc3c(-c4cc(Cl)cc5ccn(C[C@@H]6CNCCO6)c45)ncnn3c2)C1=O [Example 36, (S)-3-((4-(5-chloro-1-(morpholin-2-ylmethyl)-1H-indol-7-yl)pyrrolo[2,1-f][1,2,4]triazin-6-yl)methyl)-5,5-dimethylimidazolidine-2,4-dione hydrochloride]
8 | 50 to 70% | Cc1cc(Cl)cc(-c2ncnn3cc(CN4C(=O)C5C(C4=O)C5(C)C)cc23)c1CC1CN[C@H](C)CO1 (stereo partly drawn) [Example 40, 3-((4-(5-chloro-3-methyl-2-(((5R)-5-methylmorpholin-2-yl)methyl)phenyl)pyrrolo[2,1-f][1,2,4]triazin-6-yl)methyl)-6,6-dimethyl-3-azabicyclo[3.1.0]hexane-2,4-dione hydrochloride]
9 | 50 to 70% | Cc1cc(Cl)cc(-c2ncnn3cc(CN4C(=O)C5C(C4=O)C5(C)C)cc23)c1CC1CNCC(CF)O1 (stereo not shown) [Example 42, 3-((4-(5-chloro-2-((6-(fluoromethyl)morpholin-2-yl)methyl)-3-methylphenyl)pyrrolo[2,1-f][1,2,4]triazin-6-yl)methyl)-6,6-dimethyl-3-azabicyclo[3.1.0]hexane-2,4-dione hydrochloride]
10 | < 20% | CC1(C)C2C(=O)N(Cc3cc4c(-c5cc(C(=O)O)cc6ccn(C[C@@H]7CNCCO7)c56)ncnn4c3)C(=O)C21 (stereo partly drawn) [Example 47, 7-(6-((6,6-dimethyl-2,4-dioxo-3-azabicyclo[3.1.0]hexan-3-yl)methyl)pyrrolo[2,1-f][1,2,4]triazin-4-yl)-1-(((S)-morpholin-2-yl)methyl)-1H-indole-5-carboxylic acid hydrochloride]
11 | 20 to 49% | Cc1cc(Cl)cc(-c2ncnn3cc(CN4C(=O)C5C(C4=O)C5(C)C)cc23)c1OC[C@H]1CNCCO1 (stereo partly drawn) [Example 52, 3-((4-(5-chloro-3-methyl-2-(((R)-morpholin-2-yl)methoxy)phenyl)pyrrolo[2,1-f][1,2,4]triazin-6-yl)methyl)-6,6-dimethyl-3-azabicyclo[3.1.0]hexane-2,4-dione hydrochloride]
12 | 20 to 49% | Cc1cc(Cl)cc(-c2ncnn3cc(CN4C(=O)C5C(C4=O)C5(C)C)cc23)c1OC[C@@H]1CCCNC1 (stereo partly drawn) [Example 53, 3-((4-(5-chloro-3-methyl-2-(((R)-piperidin-3-yl)methoxy)phenyl)pyrrolo[2,1-f][1,2,4]triazin-6-yl)methyl)-6,6-dimethyl-3-azabicyclo[3.1.0]hexane-2,4-dione hydrochloride]
13 | > 70% | CC1(C)C2C(=O)N(Cc3cc4c(-c5cc(Cl)cc6c5N(C5CCNCC5)CCC6)ncnn4c3)C(=O)C21 (stereo not shown) [Example 54, 3-((4-(6-chloro-1-(piperidin-4-yl)-1,2,3,4-tetrahydroquinolin-8-yl)pyrrolo[2,1-f][1,2,4]triazin-6-yl)methyl)-6,6-dimethyl-3-azabicyclo[3.1.0]hexane-2,4-dione hydrochloride]
14 | > 70% | O=c1ccn(CC(F)(F)F)c(=O)n1Cc1cc2c(-c3cc(Cl)cc4c3N(C3CCNC3)CCC4)ncnn2c1 (stereo not shown) [Example 64, 3-((4-(6-chloro-1-(pyrrolidin-3-yl)-1,2,3,4-tetrahydroquinolin-8-yl)pyrrolo[2,1-f][1,2,4]triazin-6-yl)methyl)-1-(2,2,2-trifluoroethyl)pyrimidine-2,4(1H,3H)-dione hydrochloride]
15 | 20 to 49% | CC1(C)C2C(=O)N(Cc3cc4c(-c5cc(Cl)cc6c5N(C[C@@H]5CNCCO5)CCC6)ncnn4c3)C(=O)C21 (stereo partly drawn) [Example 65, 3-((4-(6-chloro-1-(((S)-morpholin-2-yl)methyl)-1,2,3,4-tetrahydroquinolin-8-yl)pyrrolo[2,1-f][1,2,4]triazin-6-yl)methyl)-6,6-dimethyl-3-azabicyclo[3.1.0]hexane-2,4-dione hydrochloride]
16 | > 70% | CC1(C)C2C(=O)N(Cc3cc4c(-c5cc(Cl)cc6c5N(C5CNC5)CCC6)ncnn4c3)C(=O)C21 (stereo not shown) [Example 69, 3-((4-(1-(azetidin-3-yl)-6-chloro-1,2,3,4-tetrahydroquinolin-8-yl)pyrrolo[2,1-f][1,2,4]triazin-6-yl)methyl)-6,6-dimethyl-3-azabicyclo[3.1.0]hexane-2,4-dione hydrochloride]
17 | 20 to 49% | Cc1cc(Cl)cc(-c2ncnn3cc(CN4C(=O)C5C(C4=O)C5(C)C)cc23)c1CC1CNC2(CC2)CO1 (stereo not shown) [Example 71, 3-((4-(2-((7-oxa-4-azaspiro[2.5]octan-6-yl)methyl)-5-chloro-3-methylphenyl)pyrrolo[2,1-f][1,2,4]triazin-6-yl)methyl)-6,6-dimethyl-3-azabicyclo[3.1.0]hexane-2,4-dione 2,2,2-trifluoroacetate]
18 | > 70% | Cc1cc(Cl)cc(-c2ncnn3cc(CN4C(=O)C5C(C4=O)C5(C)C)cc23)c1CC1(C)CNCC(C)(C)O1 (stereo not shown) [Example 72, 3-((4-(5-chloro-3-methyl-2-((2,6,6-trimethylmorpholin-2-yl)methyl)phenyl)pyrrolo[2,1-f][1,2,4]triazin-6-yl)methyl)-6,6-dimethyl-3-azabicyclo[3.1.0]hexane-2,4-dione hydrochloride]
19 | > 70% | Cc1cc(Cl)cc(-c2ncnn3cc(CN4C(=O)C5C(C4=O)C5(C)C)cc23)c1NCC1CCNCC1 (stereo not shown) [Example 73, 3-((4-(5-chloro-3-methyl-2-((piperidin-4-ylmethyl)amino)phenyl)pyrrolo[2,1-f][1,2,4]triazin-6-yl)methyl)-6,6-dimethyl-3-azabicyclo[3.1.0]hexane-2,4-dione dihydrochloride]
20 | 50 to 70% | Cc1cc(Cl)cc(-c2ncnn3cc(CN4C(=O)C5C(C4=O)C5(C)C)cc23)c1NCC1CCCNC1 (stereo not shown) [Example 79, 3-((4-(5-chloro-3-methyl-2-((piperidin-3-ylmethyl)amino)phenyl)pyrrolo[2,1-f][1,2,4]triazin-6-yl)methyl)-6,6-dimethyl-3-azabicyclo[3.1.0]hexane-2,4-dione dihydrochloride]
21 | 20 to 49% | Cc1cc(Cl)cc(-c2ncnn3cc(CN4C(=O)C5C(C4=O)C5(C)C)cc23)c1NC[C@@H]1CNCCO1 (stereo partly drawn) [Example 81, 3-((4-(5-chloro-3-methyl-2-((((S)-morpholin-2-yl)methyl)amino)phenyl)pyrrolo[2,1-f][1,2,4]triazin-6-yl)methyl)-6,6-dimethyl-3-azabicyclo[3.1.0]hexane-2,4-dione dihydrochloride]

Row | Compound | inhibition at 1 µM
22 | Cc1cc(Cl)cc(-c2ncnn3cc(CN4C(=O)C5C(C4=O)C5(C)C)cc23)c1CC1CNCC(F)(F)CO1 (stereo not shown) [Example 38, 3-((4-(5-chloro-2-((6,6-difluoro-1,4-oxazepan-2-yl)methyl)-3-methylphenyl)pyrrolo[2,1-f][1,2,4]triazin-6-yl)methyl)-6,6-dimethyl-3-azabicyclo[3.1.0]hexane-2,4-dione hydrochloride] | < 20%
